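Cells were grown in 96-well plates and exposed to each compound for 48 hours at five concentrations; endpoints were interpolated linearly between bracketing concentrations, or set to the highest concentration if not reached. GI50 is the concentration that inhibits growth by half. TGI: concentration producing complete growth inhibition.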
Key:
Assay in all cases: NCI tumour cell line growth inhibition, 48 h
[1] = system: ACHN renal
[2] = system: HL-60(TB) leukemia
[3] = system: K-562 leukemia
[4] = system: NCI/ADR-RES ovarian
[5] = system: SK-OV-3 ovarian
[6] = system: A498 renal
[7] = system: BT-549 breast
[8] = system: CAKI-1 renal
[9] = system: CCRF-CEM leukemia
[10] = system: DU-145 prostate
[11] = system: HOP-92 NSCLC
[12] = system: KM12 colon
[13] = system: MDA-MB-231 breast
[14] = system: MOLT-4 leukemia
[15] = system: NCI-H460 lung
[16] = system: OVCAR-3 ovarian
[17] = system: OVCAR-5 ovarian
[18] = system: OVCAR-8 ovarian
[19] = system: PC-3 prostate
[20] = system: RXF 393 renal
[21] = system: SF-295 CNS
[22] = system: SF-539 CNS
[23] = system: SK-MEL-5 melanoma
[24] = system: SN12C renal
[25] = system: SNB-75 CNS
[26] = system: SR leukemia
[27] = system: SW-620 colon
[28] = system: TK-10 renal
[29] = system: UACC-62 melanoma
[30] = system: UO-31 renal
[31] = system: 786-0 renal
[32] = system: A549 NSCLC
[33] = system: COLO 205 colon
[34] = system: EKVX NSCLC
[35] = system: HCC-2998 colon
[36] = system: HCT-15 colon
[37] = system: HOP-62 NSCLC
[38] = system: HS 578T breast
[39] = system: HT29 colon
[40] = system: IGROV1 ovarian
[41] = system: LOX IMVI melanoma
[42] = system: M14 melanoma
[43] = system: MALME-3M melanoma
[44] = system: MCF7 breast
[45] = system: MDA-MB-435
[46] = system: NCI-H226 lung
[47] = system: NCI-H522 lung
[48] = system: OVCAR-4 ovarian
[49] = system: RPMI-8226 leukemia
[50] = system: SF-268 CNS
[51] = system: SK-MEL-2 melanoma
[52] = system: SK-MEL-28 melanoma
[53] = system: SNB-19 CNS
[54] = system: T-47D breast
[55] = system: U251 CNS
[56] = system: UACC-257 melanoma

## NC(N)=Nc1ccc(Oc2cccc(Nc3ccc(Br)c(C(F)(F)F)c3)c2)cn1
[1]
  GI50: 1750 nM
  TGI: 3200 nM
[2]
  GI50: 1630 nM
  TGI: 4120 nM
[3]
  GI50: 2070 nM
  TGI: > 100000 nM
[4]
  GI50: 3930 nM
  TGI: 29500 nM
[5]
  GI50: 2040 nM
  TGI: 3680 nM

## Cc1[nH]c(C(=O)Nc2ccccc2OCc2cccc(C(=O)N3CCC[C@@H](N)C3)c2)c(Cl)c1Cl
[6]
  GI50: 1560 nM
  TGI: 3010 nM
[1]
  GI50: 1610 nM
  TGI: 3020 nM
[7]
  GI50: 1780 nM
  TGI: 3430 nM
[8]
  GI50: 1630 nM
  TGI: 3170 nM
[9]
  GI50: 1240 nM
  TGI: 2990 nM
[10]
  GI50: 1790 nM
  TGI: 3260 nM
[2]
  GI50: 1120 nM
  TGI: 2670 nM
[11]
  GI50: 1060 nM
  TGI: 2620 nM
[3]
  GI50: 1130 nM
  TGI: 2500 nM
[12]
  GI50: 1820 nM
  TGI: 3400 nM
[13]
  GI50: 1770 nM
  TGI: 3500 nM
[14]
  GI50: 1690 nM
  TGI: 3430 nM
[15]
  GI50: 1930 nM
  TGI: 3760 nM
[16]
  GI50: 1710 nM
  TGI: 3150 nM
[17]
  GI50: 1570 nM
  TGI: 2980 nM
[18]
  GI50: 2060 nM
  TGI: 4570 nM
[19]
  GI50: 1530 nM
  TGI: 3060 nM
[20]
  GI50: 1640 nM
  TGI: 3300 nM
[21]
  GI50: 1790 nM
  TGI: 3360 nM
[22]
  GI50: 1570 nM
  TGI: 2960 nM
[23]
  GI50: 1720 nM
  TGI: 3110 nM
[5]
  GI50: 1800 nM
  TGI: 3390 nM
[24]
  GI50: 1770 nM
  TGI: 3410 nM
[25]
  GI50: 1330 nM
  TGI: 2710 nM
[26]
  GI50: 254 nM
  TGI: 771 nM
[27]
  GI50: 1630 nM
  TGI: 3120 nM
[28]
  GI50: 2040 nM
  TGI: 3700 nM
[29]
  GI50: 1600 nM
  TGI: 3090 nM
[30]
  GI50: 1330 nM
  TGI: 2800 nM

## COC1CCN(Cc2ccc3c(NNC(=O)c4cnccn4)nc4cc(F)ccc4n23)C1 (centres undefined)
[31]
  GI50: 1930 nM
  TGI: 20300 nM
[6]
  GI50: 89200 nM
  TGI: > 100000 nM
[32]
  GI50: 1240 nM
  TGI: 16000 nM
[1]
  GI50: 647 nM
  TGI: 31800 nM
[7]
  GI50: 2320 nM
  TGI: > 100000 nM
[8]
  GI50: 933 nM
  TGI: 19700 nM
[9]
  GI50: 468 nM
  TGI: > 100000 nM
[33]
  GI50: 949 nM
  TGI: 13900 nM
[10]
  GI50: 2680 nM
  TGI: > 100000 nM
[34]
  GI50: 1080 nM
  TGI: 23000 nM
[35]
  GI50: 3630 nM
  TGI: 26800 nM
[36]
  GI50: 355 nM
  TGI: 16300 nM
[2]
  GI50: 1030 nM
[37]
  GI50: 747 nM
  TGI: 14400 nM
[11]
  GI50: 1770 nM
  TGI: 30000 nM
[38]
  GI50: 3440 nM
  TGI: > 100000 nM
[39]
  GI50: 552 nM
  TGI: 14800 nM
[40]
  GI50: 1130 nM
  TGI: 39100 nM
[3]
  GI50: 530 nM
  TGI: > 100000 nM
[12]
  GI50: 2140 nM
  TGI: > 100000 nM
[41]
  GI50: 1130 nM
  TGI: 2870 nM
[42]
  GI50: 1370 nM
  TGI: 13100 nM
[43]
  GI50: 3380 nM
  TGI: 18900 nM
[44]
  GI50: 531 nM
  TGI: 12300 nM
[13]
  GI50: 1800 nM
  TGI: 17300 nM
[45]
  GI50: 2090 nM
  TGI: 18700 nM
[14]
  GI50: 699 nM
  TGI: 41500 nM
[46]
  GI50: 1700 nM
  TGI: 18200 nM
[15]
  GI50: 453 nM
  TGI: 13600 nM
[47]
  GI50: 1640 nM
  TGI: 5850 nM
[4]
  GI50: 505 nM
  TGI: 16600 nM
[16]
  GI50: 2020 nM
  TGI: 49800 nM
[48]
  GI50: 667 nM
  TGI: 19100 nM
[17]
  GI50: 2710 nM
  TGI: 97700 nM
[18]
  GI50: 846 nM
  TGI: 15100 nM
[19]
  GI50: 1450 nM
  TGI: 30200 nM
[49]
  GI50: 1760 nM
  TGI: 15600 nM
[20]
  GI50: 1650 nM
  TGI: 5190 nM
[50]
  GI50: 1990 nM
  TGI: > 100000 nM
[21]
  GI50: 744 nM
  TGI: 14600 nM
[22]
  GI50: 1320 nM
  TGI: 12100 nM
[51]
  GI50: 3830 nM
  TGI: 59400 nM
[52]
  GI50: 3370 nM
  TGI: > 100000 nM
[23]
  GI50: 2760 nM
  TGI: 23600 nM
[5]
  GI50: 2350 nM
  TGI: 56000 nM
[24]
  GI50: 1820 nM
  TGI: 37000 nM
[53]
  GI50: 2050 nM
  TGI: 28400 nM
[25]
  GI50: 538 nM
  TGI: 13000 nM
[26]
  GI50: 722 nM
  TGI: 20500 nM
[27]
  GI50: 821 nM
  TGI: 20300 nM
[54]
  GI50: 1060 nM
  TGI: 64500 nM
[28]
  GI50: 1480 nM
  TGI: 58400 nM
[55]
  GI50: 601 nM
  TGI: 10900 nM
[56]
  GI50: 2230 nM
  TGI: 6930 nM
[29]
  GI50: 2300 nM
  TGI: 13100 nM
[30]
  GI50: 260 nM
  TGI: 14600 nM

Source: PubChem BioAssay (NCI)
